{
  "source": "patent US20200079758A1",
  "about": "“[4-(PHENYLSULFONYL)PIPERAZIN-1-YL](1H-1,2,3-TRIAZOL-4-YL)METHANONES” (priority 2016, published 2020)",
  "biological_target": "T1, recombinant human AKR1C3 (Homo sapiens, UniProt P42330)",
  "T1 construct": "GST (cleaved yes); made in house; host or cells: E. coli",
  "T1 sequence (P42330 1-323)": "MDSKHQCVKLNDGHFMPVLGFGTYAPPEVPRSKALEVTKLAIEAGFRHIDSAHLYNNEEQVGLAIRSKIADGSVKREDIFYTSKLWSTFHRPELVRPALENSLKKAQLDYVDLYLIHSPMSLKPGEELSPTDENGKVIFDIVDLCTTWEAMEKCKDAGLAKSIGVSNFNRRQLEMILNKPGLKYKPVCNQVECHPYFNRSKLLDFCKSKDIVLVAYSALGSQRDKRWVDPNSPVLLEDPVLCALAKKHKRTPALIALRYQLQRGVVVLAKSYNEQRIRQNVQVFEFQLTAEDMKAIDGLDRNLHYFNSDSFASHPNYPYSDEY",
  "assay": "AKR1C3-inhibitory activity assay (generation of Coumberol from Coumberone)",
  "type": "biochemical",
  "details": "Coumberone 0.3 μM, NADPH 10 μM, 22° C., typically 90 min, average or median values",
  "procedure": "The AKR1C3-inhibitory activity of the substances of the present invention was measured in the AKR1C3 assay described in the paragraphs below.\nEssentially, the enzyme activity is measured by quantification of the generation of Coumberol from Coumberone (Halim et al. J. AM. CHEM. SOC. 2008, 130:14123-14128 and Yee et al. Proc. Natl. Acad. Sci. USA 2006, 103:13304-13309). In this test, the increase of the highly fluorescent Coumberol by NADPH- (nicotinamide adenine dinucleotide phosphate)-dependent reduction of the non-fluorescent Coumberone by AKR1C3 was determined.\nThe enzyme used was recombinant human AKR1C3 (Aldo-keto reductase family 1 member C3; GenBank Accession No. NM_003739). This was expressed in E. coli as GST (glutathione S transferase) fusion protein and purified by glutathione Sepharose affinity chromatography. The GST was removed by digestion with thrombin and subsequent size exclusion chromatography (Dufort, I., Rheault, P., Huang, X F., Soucy, P., and Luu-The, V., Endocrinology 140, 568-574 (1999)).\nFor the assay, 50 nl of a 100-fold concentrated solution of the test substance in DMSO were pipetted into a black low-volume 384-well microtiter plate (Greiner Bio-One, Frickenhausen, Germany), 2.5 μl of a solution of AKR1C3 in assay buffer [50 mM potassium phosphate buffer pH 7, 1 mM DTT, 0.0022% (w/v) Pluronic F-127, 0.01% BSA (w/v) and protease inhibitor cocktail (Complete, EDTA-free Protease Inhibitor Cocktail from Roche)] were added and the mixture was incubated for 15 min to allow pre-binding of the substances to the enzyme prior to the enzyme reaction. The enzyme reaction was then started by addition of 2.5 μl of a solution of NADPH (20 μM→final concentration in 5 μl of assay volume is 10 μM) and Coumberone (0.6 μM→final concentration in 5 μl of assay volume is 0.3 μM) in assay buffer, and the resulting mixture was incubated at 22° C. for the reaction time of typically 90 min. The concentration of the AKR1C3 and the reaction time was adapted to the respective activity of the enzyme preparation and adjusted such that the assay was carried out in the linear range. Typical AKR1C3 concentrations were in the region of 1 nM. The reaction was stopped by addition of 2.5 μl of a stop solution consisting of 3 μM EM-1404 as inhibitor (U.S. Pat. No. 6,541,463) in 50 mM HEPES pH7.5 (3 μM EM-1404→final concentration in 7.5 μl of assay volume is 1 μM). The fluorescence of the Coumberole was then measured at 520 nm (excitation at 380 nm) using a suitable measuring instrument (Pherastar from BMG Labtechnologies). The intensity of the fluorescence was used as a measure of the amount of Coumberole formed and thus of the enzyme activity of AKR1C3. The data were normalized (enzyme reaction without inhibitor=0% inhibition; all other assay components, but no enzyme=100% inhibition).",
  "data": [
    {"smiles": "C[C@@H]1CN(S(=O)(=O)c2ccccc2Br)C[C@H](C)N1C(=O)c1cnn[nH]1", "note": "[Example 102, {(2R,6S)-4-[(2-bromophenyl)sulfonyl]-2,6-dimethylpiperazin-1-yl}(1H-1,2,3-triazol-5-yl)methanone]", "values": [
      {"measurement": "IC50", "value": 1, "unit": "nM"}
    ]},
    {"smiles": "Cc1c(Cl)cccc1S(=O)(=O)N1C[C@@H](C)N(C(=O)c2cnn[nH]2)[C@@H](C)C1", "note": "[Example 103, {(2R,6S)-4-[(3-chloro-2-methylphenyl)sulfonyl]-2,6-dimethylpiperazin-1-yl}(1H-1,2,3-triazol-5-yl)methanone]", "values": [
      {"measurement": "IC50", "value": 2, "unit": "nM"}
    ]},
    {"smiles": "C[C@@H]1CN(S(=O)(=O)c2cccc(OC(F)(F)F)c2)C[C@H](C)N1C(=O)c1cnn[nH]1", "note": "[Example 106, [(2R,6S)-2,6-dimethyl-4-{[3-(trifluoromethoxy)phenyl]sulfonyl}piperazin-1-yl](1H-1,2,3-triazol-5-yl)methanone]", "values": [
      {"measurement": "IC50", "value": 34, "unit": "nM"}
    ]},
    {"smiles": "Cc1ccc(C)c(S(=O)(=O)N2C[C@H](C)N(C(=O)c3cnn[nH]3)C[C@H]2C)c1", "note": "[Example 70, {(2S,5R)-4-[(2,5-dimethylphenyl)sulfonyl]-2,5-dimethylpiperazin-1-yl}(1H-1,2,3-triazol-5-yl)methanone]", "values": [
      {"measurement": "IC50", "value": 1, "unit": "nM"}
    ]},
    {"smiles": "CC(=O)Nc1ccc(S(=O)(=O)N2C[C@H](C)N(C(=O)c3cnn[nH]3)C[C@H]2C)cc1", "note": "[Example 62, N-(4-{[(2R,5S)-2,5-dimethyl-4-(1H-1,2,3-triazol-5-ylcarbonyl)piperazin-1-yl]sulfonyl}phenyl)acetamide]", "values": [
      {"measurement": "IC50", "value": 88, "unit": "nM"}
    ]},
    {"smiles": "C[C@@H]1CN(C(=O)c2cnn[nH]2)[C@@H](C)CN1S(=O)(=O)c1cc(F)cc(F)c1", "note": "[Example 3, {(2S,5R)-4-[(3,5-difluorophenyl)sulfonyl]-2,5-dimethylpiperazin-1-yl}(1H-1,2,3-triazol-5-yl)methanone]", "values": [
      {"measurement": "IC50", "value": 1, "unit": "nM"}
    ]},
    {"smiles": "C[C@@H]1CN(C(=O)c2cnn[nH]2)[C@@H](C)CN1S(=O)(=O)c1ccc(F)cc1", "note": "[Example 66, {(2S,5R)-4-[(4-fluorophenyl)sulfonyl]-2,5-dimethylpiperazin-1-yl}(1H-1,2,3-triazol-5-yl)methanone]", "values": [
      {"measurement": "IC50", "value": 4, "unit": "nM"}
    ]},
    {"smiles": "Cc1cc(C)cc(S(=O)(=O)N2CCN(C(=O)c3c[nH]nn3)CC2(C)C)c1", "note": "[Example 22, {4-[(3,5-dimethylphenyl)sulfonyl]-3,3-dimethylpiperazin-1-yl}(1H-1,2,3-triazol-4-yl)methanone]", "values": [
      {"measurement": "IC50", "value": 2, "unit": "nM"}
    ]},
    {"smiles": "C[C@@H]1CN(C(=O)c2cnn[nH]2)[C@@H](C)CN1S(=O)(=O)c1ccccc1S(C)(=O)=O", "note": "[Example 84, [(2S,5R)-2,5-dimethyl-4-{[2-(methylsulfonyl)phenyl]sulfonyl}piperazin-1-yl](1H-1,2,3-triazol-5-yl)methanone]", "values": [
      {"measurement": "IC50", "value": 37, "unit": "nM"}
    ]},
    {"smiles": "Cc1cccc(S(=O)(=O)N2C[C@H](C)N(C(=O)c3cnn[nH]3)C[C@H]2C)c1", "note": "[Example 75, {(2S,5R)-2,5-dimethyl-4-[(3-methylphenyl)sulfonyl]piperazin-1-yl}(1H-1,2,3-triazol-5-yl)methanone]", "values": [
      {"measurement": "IC50", "value": 1, "unit": "nM"}
    ]},
    {"smiles": "C[C@@H]1CN(C(=O)c2cnn[nH]2)[C@@H](C)CN1S(=O)(=O)c1ccc(F)c(Cl)c1", "note": "[Example 91, {(2S,5R)-4-[(3-chloro-4-fluorophenyl)sulfonyl]-2,5-dimethylpiperazin-1-yl}(1H-1,2,3-triazol-5-yl)methanone]", "values": [
      {"measurement": "IC50", "value": 1, "unit": "nM"}
    ]},
    {"smiles": "C[C@@H]1CN(S(=O)(=O)c2c(F)cccc2F)C[C@H](C)N1C(=O)c1c[nH]nn1", "note": "[Example 53, {(2R,6S)-4-[(2,6-difluorophenyl)sulfonyl]-2,6-dimethylpiperazin-1-yl}(1H-1,2,3-triazol-4-yl)methanone]", "values": [
      {"measurement": "IC50", "value": 9, "unit": "nM"}
    ]},
    {"smiles": "C[C@@H]1CN(S(=O)(=O)c2cc(Cl)cc(Cl)c2)C[C@H](C)N1C(=O)c1c[nH]nn1", "note": "[Example 58, {(2R,6S)-4-[(3,5-dichlorophenyl)sulfonyl]-2,6-dimethylpiperazin-1-yl}(1H-1,2,3-triazol-4-yl)methanone]", "values": [
      {"measurement": "IC50", "value": 2, "unit": "nM"}
    ]},
    {"smiles": "C[C@@H]1CN(C(=O)c2cnn[nH]2)[C@@H](C)CN1S(=O)(=O)c1ccccc1C(F)(F)F", "note": "[Example 6, [(2S,5R)-2,5-dimethyl-4-{[2-(trifluoromethyl)phenyl]sulfonyl}piperazin-1-yl](1H-1,2,3-triazol-5-yl)methanone]", "values": [
      {"measurement": "IC50", "value": 2, "unit": "nM"}
    ]},
    {"smiles": "C[C@@H]1CN(S(=O)(=O)c2ccccc2-c2ccccc2)C[C@H](C)N1C(=O)c1cnn[nH]1", "note": "[Example 107, [(2R,6S)-4-(biphenyl-2-ylsulfonyl)-2,6-dimethylpiperazin-1-yl](1H-1,2,3-triazol-5-yl)methanone]", "values": [
      {"measurement": "IC50", "value": 245, "unit": "nM"}
    ]},
    {"smiles": "Cc1cc(Cl)cc(S(=O)(=O)N2CCN(C(=O)c3cnn[nH]3)CC2(C)C)c1", "note": "[Example 140, {4-[(3-chloro-5-methylphenyl)sulfonyl]-3,3-dimethylpiperazin-1-yl}(1H-1,2,3-triazol-5-yl)methanone]", "values": [
      {"measurement": "IC50", "value": 2, "unit": "nM"}
    ]},
    {"smiles": "C[C@@H]1CN(S(=O)(=O)c2cccc(C#N)c2)C[C@H](C)N1C(=O)c1c[nH]nn1", "note": "[Example 54, 3-{[(3R,5S)-3,5-dimethyl-4-(1H-1,2,3-triazol-4-ylcarbonyl)piperazin-1-yl]sulfonyl}benzonitrile]", "values": [
      {"measurement": "IC50", "value": 118, "unit": "nM"}
    ]},
    {"smiles": "CC1(C)CN(C(=O)c2cnn[nH]2)CCN1S(=O)(=O)c1ccc(Br)cc1", "note": "[Example 109, {4-[(4-bromophenyl)sulfonyl]-3,3-dimethylpiperazin-1-yl}(1H-1,2,3-triazol-5-yl)methanone]", "values": [
      {"measurement": "IC50", "value": 4, "unit": "nM"}
    ]},
    {"smiles": "CC1(C)CN(C(=O)c2c[nH]nn2)CCN1S(=O)(=O)c1cccc(Br)c1", "note": "[Example 23, {4-[(3-bromophenyl)sulfonyl]-3,3-dimethylpiperazin-1-yl}(1H-1,2,3-triazol-4-yl)methanone]", "values": [
      {"measurement": "IC50", "value": 2, "unit": "nM"}
    ]},
    {"smiles": "C[C@@H]1CN(S(=O)(=O)c2ccccc2F)C[C@H](C)N1C(=O)c1c[nH]nn1", "note": "[Example 51, {(2R,6S)-4-[(2-fluorophenyl)sulfonyl]-2,6-dimethylpiperazin-1-yl}(1H-1,2,3-triazol-4-yl)methanone]", "values": [
      {"measurement": "IC50", "value": 6, "unit": "nM"}
    ]},
    {"smiles": "C[C@@H]1CN(C(=O)c2c[nH]nn2)[C@@H](C)CN1S(=O)(=O)c1cccc(Cl)c1F", "note": "[Example 9, {(2S,5R)-4-[(3-chloro-2-fluorophenyl)sulfonyl]-2,5-dimethylpiperazin-1-yl}(1H-1,2,3-triazol-4-yl)methanone]", "values": [
      {"measurement": "IC50", "value": 1, "unit": "nM"}
    ]},
    {"smiles": "C[C@@H]1CN(C(=O)c2c[nH]nn2)[C@@H](C)CN1S(=O)(=O)c1cccc(C(F)(F)F)c1", "note": "[Example 12, [(2S,5R)-2,5-dimethyl-4-{[3-(trifluoromethyl)phenyl]sulfonyl}piperazin-1-yl](1H-1,2,3-triazol-4-yl)methanone]", "values": [
      {"measurement": "IC50", "value": 1, "unit": "nM"}
    ]},
    {"smiles": "C[C@@H]1CN(C(=O)c2cnn[nH]2)[C@@H](C)CN1S(=O)(=O)c1ccc(OC(F)(F)F)cc1", "note": "[Example 71, [(2S,5R)-2,5-dimethyl-4-{[4-(trifluoromethoxy)phenyl]sulfonyl}piperazin-1-yl](1H-1,2,3-triazol-5-yl)methanone]", "values": [
      {"measurement": "IC50", "value": 22, "unit": "nM"}
    ]},
    {"smiles": "CC1(C)CN(C(=O)c2cnn[nH]2)CCN1S(=O)(=O)c1cc(F)c(F)cc1F", "note": "[Example 128, {3,3-dimethyl-4-[(2,4,5-trifluorophenyl)sulfonyl]piperazin-1-yl}(1H-1,2,3-triazol-5-yl)methanone]", "values": [
      {"measurement": "IC50", "value": 18, "unit": "nM"}
    ]},
    {"smiles": "Cc1ccccc1S(=O)(=O)N1C[C@@H](C)N(C(=O)c2c[nH]nn2)[C@@H](C)C1", "note": "[Example 45, {(2R,6S)-2,6-dimethyl-4-[(2-methylphenyl)sulfonyl]piperazin-1-yl}(1H-1,2,3-triazol-4-yl)methanone]", "values": [
      {"measurement": "IC50", "value": 1, "unit": "nM"}
    ]},
    {"smiles": "C[C@@H]1CN(S(=O)(=O)c2cccc3ccccc23)C[C@H](C)N1C(=O)c1cnn[nH]1", "note": "[Example 96, [(2R,6S)-2,6-dimethyl-4-(naphthalen-1-ylsulfonyl)piperazin-1-yl](1H-1,2,3-triazol-5-yl)methanone]", "values": [
      {"measurement": "IC50", "value": 2, "unit": "nM"}
    ]}
  ]
}
